Data from PMC8151276, “An Integrated Approach toward NanoBRET Tracers for Analysis of GPCR Ligand Engagement” (Molecules, 2021).

Columns and labels:
[1] = target: T1, FPR1 (Homo sapiens, UniProt P21462); assay: NanoBRET screen HiBiT-FPR1 in HEK293; format: binding; settings: FPR1
T1 construct: purchased Promega (in-house HiBiT-GPCR construct library, NanoBRET)
T1 sequence (P21462 1-350): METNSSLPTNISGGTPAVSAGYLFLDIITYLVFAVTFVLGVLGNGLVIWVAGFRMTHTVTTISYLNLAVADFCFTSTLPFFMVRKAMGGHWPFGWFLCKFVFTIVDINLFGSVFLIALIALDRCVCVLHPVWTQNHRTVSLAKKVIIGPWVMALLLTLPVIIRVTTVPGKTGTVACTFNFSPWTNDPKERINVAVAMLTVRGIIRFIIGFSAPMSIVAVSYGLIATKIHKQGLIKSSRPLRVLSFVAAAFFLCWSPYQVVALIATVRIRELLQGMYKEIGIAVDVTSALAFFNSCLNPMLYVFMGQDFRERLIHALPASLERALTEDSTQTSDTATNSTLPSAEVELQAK
Experimental: (§1) Each tracer candidate was screened across the entire library of HiBiT-GPCR constructs using NanoBRET as the detection modality. As depicted in Figure 4A, the specificity of interactions was evaluated through decrease in BRET due to competitive displacement of a bound tracer by excess parental compound. Each tracer was analyzed for binding to each HiBiT-GPCR fusion in the absence and in the presence of competing parental compound. Briefly, HEK293 cells were transfected with HiBiT-GPCR constructs diluted into promoterless DNA to reduce expression and maximize translocation to the cell surface. Each tracer candidate was then screened at concentrations of 1 μM and 0.1 μM across cells expressing these fusions. Cells were treated for 1.5 h with tracer either alone or in the presence of 20 μM competing parental compound (i.e., control). BRET was measured upon addition of purified LgBiT and subsequent complementation with HiBiT genetically fused to a GPCR. The specificity of interactions was assessed through a decrease in BRET signal due to competitive displacement of the bound tracer. To further gauge the robustness of these interactions, the fold response over the control (i.e., BRETtracer/BRETcontrol) was calculated. We chose a 1.5-fold response, which translates to ≥7-fold signal over noise as the minimal threshold required to score an interaction as positive. […]. Below we highlight the screening results obtained for our exemplary fluorescent tracers based on Clozapine, Amitriptyline and AZD1283.
(§2) HiBiT-GPCR DNA constructs were diluted in 10 mM Tris pH 8 to a final concentration of 0.01 μg/μL, arrayed in 96-well plates and stored at −20 °C. For transfection, HEK293 cells were suspended in Opti-MEM (without phenol red) supplemented with 2% fetal bovine serum (Seradigm) and 100 units/mL penicillin–streptomycin (Gibco) at a final concentration of 220,000 cells/mL and dispensed into white 96-well plates at 90 μL/well. Subsequent transfections and screens were carried using an Agilent Bravo Automated Liquid Handling Platform. First, the 96-well HiBiT DNA arrays were diluted 25-fold in Opti-MEM (without serum or phenol red) to a final concentration of 0.0004 μg/μL and 20 μL of the diluted DNAs were transferred into new 96-well plates. Next, promoterless carrier DNA (1 μg/μL) was diluted 25-fold (0.04 μg/μL) and then dispensed into the diluted arrays at 20 μL/well. Following brief mixing, Viafect transfection reagent (Promega) diluted 16-fold into Opti-MEM was dispensed into the plates at 40 μL/well. After mixing by pipetting, plates were incubated for 10 min on the pipetting station deck. The DNA-transfection reagent complexes were then added to plates containing cells. To facilitate the screen, 10 μL of DNA-transfection reagent complexes were added in duplicates to the top 4 and bottom 4 rows, resulting in two identical 48-well arrays per plate. Plates with transfected cells were incubated for 18–20 h at 37 °C/5% CO2. A screen of each tracer across the entire library using two different concentrations requires duplicate plates of transfected cells. Depending on the number of tracers being screened, transfections can be scaled up using the same ratios. The next day, for each tracer, four 20× screening solutions in tracer dilution buffer (Promega) were prepared: two duplicates at final concentration of 20 μM and two duplicates at a final concentration of 2 μM. A competing unmodified compound was added to one of each duplicate at a final concentration of 400 μM. The four resulting solutions were diluted 4-fold in Opti-MEM without serum or phenol red to generate 5× solutions (5 µM and 0.5 µM tracer +/− 100 μM competing compound). To screen the library, a BioTek MultiFlo FX liquid dispenser was used to dispense 22.5 µL of tracer solution to the top 4 rows and 22.5 µL tracer + competing compound solution to the 4 bottom rows. Plates were briefly mixed on an orbital shaker and incubated for 1.5 h at room temperature. […]

[2] = target: T2, PTGER2 (Homo sapiens, UniProt P43116); assay: NanoBRET screen HiBiT-PTGER2 in HEK293; format: binding; settings: PTGER2
T2 construct: purchased Promega (in-house HiBiT-GPCR construct library, NanoBRET)
T2 sequence (P43116 whole entry): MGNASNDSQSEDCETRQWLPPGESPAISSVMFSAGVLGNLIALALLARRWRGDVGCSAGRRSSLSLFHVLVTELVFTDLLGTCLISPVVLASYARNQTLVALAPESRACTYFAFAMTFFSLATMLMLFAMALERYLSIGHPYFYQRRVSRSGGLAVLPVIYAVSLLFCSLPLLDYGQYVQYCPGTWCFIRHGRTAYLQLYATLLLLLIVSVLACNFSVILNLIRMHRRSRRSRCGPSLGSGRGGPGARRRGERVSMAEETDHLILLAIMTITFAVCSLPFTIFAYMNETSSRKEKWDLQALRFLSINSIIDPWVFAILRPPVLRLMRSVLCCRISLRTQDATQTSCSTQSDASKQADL
Experimental: as §1, §2

Row | Compound | NanoBRET Fold Response ([1]; 0.1μM tracer) | NanoBRET Fold Response ([1]; 1μM tracer) | NanoBRET Fold Response ([2]; 0.1μM tracer) | NanoBRET Fold Response ([2]; 1μM tracer) | NanoBRET Fold Response ([1]; tracer 0.1μM) | NanoBRET Fold Response ([1]; tracer 1μM) | NanoBRET Fold Response ([2]; tracer 0.1μM) | NanoBRET Fold Response ([2]; tracer 1μM)
1 | O=C(CCOCCOCCOCCOCCNC(=O)CCc1ccc2n1[B-](F)(F)[N+]1=C(c3ccc[nH]3)C=CC1=C2)NCCCN1CCN(C2=Nc3cc(Cl)ccc3Nc3ccccc32)CC1 [Clozapine-a-2-NB590] | 1.01 | 1.22 | 1.01 | 1.05 |  |  |  | 
2 | CN1CCN(C2=Nc3cc(Cl)ccc3Nc3ccc(CNC(=O)CCOCCOCCOCCOCCNC(=O)CCc4ccc5n4[B-](F)(F)[N+]4=C(c6ccc[nH]6)C=CC4=C5)cc32)CC1 [Clozapine-b-2-NB590] | 0.98 | 1.00 | 1.01 | 0.98 |  |  |  | 
3 | Cc1nc2n(c(=O)c1CCN1CCC(c3noc4cc(F)ccc34)CC1)CCCC2OC(=O)NCCOCCOCCOCCOCCNC(=O)CCc1ccc2n1[B-](F)(F)[N+]1=C(c3ccc[nH]3)C=CC1=C2 (stereo not drawn) [Risperidone-2-NB590] |  |  |  |  | 0.97 | 0.91 | 1.01 | 1.05
